From ChEMBL document CHEMBL1201862, “PubChem BioAssay data set” (2004)
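Compound exposure: 48 hours, 5 concentrations, 96-well plates. Abbreviation: GI50, concentration required for 50% inhibition of growth.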 The source made the active and inactive calls. No stated cut-off is given here; in the data, active = GI50 up to about 1.1 µM and inactive = higher.

How the values were obtained:
Test in all cases: growth of human tumour cells (NCI), 48 h
SK-MEL-5 = test system: SK-MEL-5
T47D = test system: T47D
NCI-H522 = test system: NCI-H522
SN12C = test system: SN12C
OVCAR-8 = test system: OVCAR-8
KM12 = test system: KM12
CAKI-1 = test system: CAKI-1
A498 = test system: A498
MOLT-4 = test system: MOLT-4
HOP-92 = test system: HOP-92
MDA-N = test system: MDA-N
HT-29 = test system: HT-29
COLO 205 = test system: COLO 205
SK-MEL-28 = test system: SK-MEL-28
Hs-578T = test system: Hs-578T
IGROV-1 = test system: IGROV-1
SF-295 = test system: SF-295
PC-3 = test system: PC-3
ACHN = test system: ACHN
SR = test system: SR

Measured: GI50

Cc1c2cnccc2c(C)c2c1c1ccccc1n2CCOC(=O)c1ccccc1
inactive: SK-MEL-5 16.2 µM | T47D 30 µM | NCI-H522 11.4 µM | SN12C 2.52 µM | OVCAR-8 6.55 µM | KM12 12.5 µM | CAKI-1 6.24 µM | A498 1.75 µM | MOLT-4 5.25 µM | HOP-92 27.7 µM | MDA-N 17.6 µM | HT-29 16.4 µM | COLO 205 7.8 µM | SK-MEL-28 15.2 µM | Hs-578T 30.1 µM | IGROV-1 9.44 µM | SF-295 11 µM | PC-3 28.6 µM | ACHN 4.74 µM | SR 17.5 µM

COc1cc(-c2cc(O)c(-c3ccc4ccccc4n3)c(O)n2)cc(OC)c1OC
inactive: SK-MEL-5 15.1 µM | T47D 97.5 µM | NCI-H522 13.2 µM | SN12C > 56.6 µM | OVCAR-8 > 32.4 µM | KM12 14.8 µM | CAKI-1 > 44 µM | A498 > 61 µM | MOLT-4 6.97 µM | HOP-92 26.2 µM | MDA-N 3.56 µM | HT-29 18.6 µM | COLO 205 38.7 µM | SK-MEL-28 42.1 µM | Hs-578T 57.4 µM | IGROV-1 43.5 µM | SF-295 21.9 µM | PC-3 44.3 µM | ACHN > 62.7 µM | SR 1.77 µM

COC(=O)Nc1nc2cc(S(=O)(=O)N3CCOCC3)ccc2[nH]1
inactive: SK-MEL-5 > 100 µM | T47D > 100 µM | NCI-H522 > 100 µM | SN12C > 100 µM | OVCAR-8 > 100 µM | KM12 65.5 µM | CAKI-1 > 100 µM | A498 > 100 µM | MOLT-4 94.4 µM | HOP-92 > 100 µM | MDA-N 27.6 µM | HT-29 > 100 µM | COLO 205 > 100 µM | SK-MEL-28 49.7 µM | Hs-578T > 100 µM | IGROV-1 > 100 µM | SF-295 > 100 µM | PC-3 > 100 µM | ACHN > 100 µM | SR 51.1 µM
